According to patent US20240316023A1, “BENEDIN, PIPERIDINE, 2-BENZHYDRYL-3-HYDROXY-N-METHYL-, HYDROCHLORIDE AND DERIVATIVES THEREOF FOR USE IN TREATING KLEINE-LEVIN SYNDROME” (priority 2021, published 2024):

Tests used:
[1] = target: T1, M2 (h) (antagonist radioligand) (Homo sapiens, UniProt P08172); test: Radioligand binding panel (Eurofins/CEREP), M2; details: 10^−5 M; % inhibition of control specific binding; read-out: % Inhibition at 10^−5M Benedin
T1 construct: CEREP (Eurofins, France), contract panel
T1 sequence (P08172 1-466): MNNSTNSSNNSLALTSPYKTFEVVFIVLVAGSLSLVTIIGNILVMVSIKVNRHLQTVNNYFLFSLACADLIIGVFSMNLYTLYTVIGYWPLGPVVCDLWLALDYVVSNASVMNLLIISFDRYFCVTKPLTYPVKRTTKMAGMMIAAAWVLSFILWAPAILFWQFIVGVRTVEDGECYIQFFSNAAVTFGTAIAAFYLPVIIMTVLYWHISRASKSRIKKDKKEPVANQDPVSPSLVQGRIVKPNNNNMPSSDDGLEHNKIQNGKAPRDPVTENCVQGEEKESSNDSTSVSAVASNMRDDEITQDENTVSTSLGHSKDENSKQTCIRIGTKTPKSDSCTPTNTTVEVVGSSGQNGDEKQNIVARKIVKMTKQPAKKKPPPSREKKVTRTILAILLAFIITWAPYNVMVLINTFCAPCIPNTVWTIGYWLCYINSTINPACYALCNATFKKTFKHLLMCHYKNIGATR
Method: (§1) Benedin was tested at 10^−5 M, calculated as a % inhibition of control specific binding of a radioactively labeled ligand specific for each target.
(§2) This binding profile panel was broadly defined with roughly an equal number of selective, central and peripheral therapeutically relevant targets, including native animal tissues, radioligands and specific enzymes involved in cell cycle regulation in accordance with Eurofins Standard Operating Procedure.
(§3) For radioligand binding experiments, the half maximal inhibitory concentration (IC50) and the half maximal effective concentration (EC50) values were determined (via computer software) by nonlinear regression analysis of the competition curves using Hill equation curve fitting. The inhibition constants (Ki) were calculated using the Cheng-Prusoff equation (Ki=IC50/(1+(L/KD)), where L is the concentration of radioligand in the assay, and KD is the affinity of the radioligand for the receptor.^60
(§4) The results are expressed as a % control specific binding ([measured specific binding/control specific binding]×100) and as a % inhibition of control specific binding (100−[(measured specific binding/control specific binding)×100] obtained in the presence of the test compounds. […]

[2] = target: T2, M3 (h) (antagonist radioligand) (Homo sapiens, UniProt P20309); test: Radioligand binding panel (Eurofins/CEREP), M3; details: 10^−5 M; % inhibition of control specific binding; read-out: % Inhibition at 10^−5M Benedin
T2 construct: CEREP (Eurofins, France), contract panel
T2 sequence (P20309 whole entry): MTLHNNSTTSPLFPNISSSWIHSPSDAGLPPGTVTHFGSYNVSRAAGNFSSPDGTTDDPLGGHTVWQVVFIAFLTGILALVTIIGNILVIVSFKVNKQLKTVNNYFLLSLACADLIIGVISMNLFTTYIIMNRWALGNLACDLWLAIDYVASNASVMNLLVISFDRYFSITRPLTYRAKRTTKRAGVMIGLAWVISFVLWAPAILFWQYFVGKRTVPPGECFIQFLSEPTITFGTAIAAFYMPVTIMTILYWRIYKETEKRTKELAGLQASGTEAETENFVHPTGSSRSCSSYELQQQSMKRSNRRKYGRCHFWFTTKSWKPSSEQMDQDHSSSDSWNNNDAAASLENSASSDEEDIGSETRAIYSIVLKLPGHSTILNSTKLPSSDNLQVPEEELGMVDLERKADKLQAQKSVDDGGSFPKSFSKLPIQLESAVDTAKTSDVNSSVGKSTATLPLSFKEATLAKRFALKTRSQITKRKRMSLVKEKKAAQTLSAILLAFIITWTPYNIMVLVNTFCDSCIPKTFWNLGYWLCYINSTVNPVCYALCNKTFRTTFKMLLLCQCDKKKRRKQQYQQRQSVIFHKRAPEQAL
Method: as §1, §2, §3, §4

CN1CCCC(O)C1C(c1ccccc1)c1ccccc1 (centres unmarked) [Benedin, 2-benzhydryl-3-hydroxy-N-methyl-piperidine]
inhibition at 10 µM [1]: 65%
inhibition at 10 µM [2]: 44.6%
